Laboratory results published in PubChem BioAssay (NCI).
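These data come from cells grown in 96-well plates and exposed to compound for 48 hours at five concentrations. GI50 is the concentration that inhibits growth by half. TGI is the concentration that stops growth completely.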

Legend:
Test in all cases: growth of human tumour cells (NCI), 48 h
SNB-19 CNS = system: SNB-19 CNS
HOP-92 NSCLC = system: HOP-92 NSCLC
KM12 colon = system: KM12 colon
CAKI-1 renal = system: CAKI-1 renal
M14 melanoma = system: M14 melanoma
A498 renal = system: A498 renal
SF-268 CNS = system: SF-268 CNS
OVCAR-8 ovarian = system: OVCAR-8 ovarian
COLO 205 colon = system: COLO 205 colon
IGROV1 ovarian = system: IGROV1 ovarian

In the case of O=C(c1ccco1)c1nc2cc(C(F)(F)F)ccc2[n+]([O-])c1C(F)(F)F, the GI50 (SNB-19 CNS) is reported as 48.3 µM, the TGI (SNB-19 CNS) is reported as > 100 µM and the GI50 (HOP-92 NSCLC) is reported as 36.7 µM. For the same compound, the TGI (HOP-92 NSCLC) was > 100 µM, the GI50 (KM12 colon) was 17.4 µM and the TGI (KM12 colon) was > 100 µM. For the same compound, the GI50 (CAKI-1 renal) was > 100 µM, the TGI (CAKI-1 renal) was > 100 µM and the GI50 (M14 melanoma) was 43800 nM. For the same compound, the TGI (M14 melanoma) was > 100 µM, the GI50 (A498 renal) was 39.3 µM and the TGI (A498 renal) was > 100 µM. For the same compound, the GI50 (SF-268 CNS) was 52.4 µM, the TGI (SF-268 CNS) was > 100 µM and the GI50 (OVCAR-8 ovarian) was > 100000 nM. The TGI (OVCAR-8 ovarian) was > 100 µM, the GI50 (COLO 205 colon) was 43800 nM and the TGI (COLO 205 colon) was > 100 µM. For the same compound, the GI50 (IGROV1 ovarian) was 34.9 µM and the TGI (IGROV1 ovarian) was > 100 µM.
O=C1CCSC(=S)N1c1ccc(Br)c(Cl)c1 was tested, and the TGI (SNB-19 CNS) was 57.6 µM, the TGI (HOP-92 NSCLC) was 69.1 µM and the TGI (KM12 colon) was 85.9 µM. The TGI (CAKI-1 renal) was 77.4 µM, the TGI (M14 melanoma) was > 100 µM and the TGI (A498 renal) was 48.4 µM. For the same compound, the TGI (SF-268 CNS) was 44.2 µM, the TGI (OVCAR-8 ovarian) was 92.1 µM and the TGI (COLO 205 colon) was 41.2 µM. For the same compound, the TGI (IGROV1 ovarian) was 49.5 µM.
O=C1/C(=C/c2ccc(Cl)c(Cl)c2)CNC/C1=C\c1ccc(Cl)c(Cl)c1 showed a TGI (SNB-19 CNS) of 32.6 µM, a TGI (HOP-92 NSCLC) of 50.7 µM and a TGI (KM12 colon) of 24.9 µM. The TGI (CAKI-1 renal) was 24.3 µM, the TGI (M14 melanoma) was 33.9 µM and the TGI (A498 renal) was 32.2 µM. For the same compound, the TGI (SF-268 CNS) was 16.4 µM, the TGI (OVCAR-8 ovarian) was 16 µM and the TGI (COLO 205 colon) was 17.3 µM. The TGI (IGROV1 ovarian) was 18.8 µM.
For COc1ccc(N=Nc2c(-c3ccccc3)nn(C(=O)CC(=O)Nc3ccccc3Cl)c2-c2ccccc2)cc1, the TGI (SNB-19 CNS) was > 100 µM, the TGI (HOP-92 NSCLC) was > 100 µM and the TGI (KM12 colon) was > 100 µM. The TGI (CAKI-1 renal) was > 100 µM, the TGI (M14 melanoma) was > 100 µM and the TGI (A498 renal) was > 100 µM. The TGI (SF-268 CNS) was > 100 µM, the TGI (OVCAR-8 ovarian) was > 100 µM and the TGI (COLO 205 colon) was > 100 µM. The TGI (IGROV1 ovarian) was > 100 µM.
For O=C(Cn1c(C(=O)c2ccc(Cl)cc2)nc(-c2ccccc2)c1-c1ccccc1)c1ccc(Cl)cc1, the GI50 (SNB-19 CNS) was > 100 µM, the TGI (SNB-19 CNS) was > 100 µM and the GI50 (HOP-92 NSCLC) was 23.9 µM. The TGI (HOP-92 NSCLC) was > 100 µM, the GI50 (KM12 colon) was > 100 µM and the TGI (KM12 colon) was > 100 µM. The GI50 (CAKI-1 renal) was > 100 µM, the TGI (CAKI-1 renal) was > 100 µM and the GI50 (M14 melanoma) was > 100000 nM. The TGI (M14 melanoma) was > 100 µM, the GI50 (A498 renal) was > 100 µM and the TGI (A498 renal) was > 100 µM. For the same compound, the GI50 (SF-268 CNS) was > 100 µM, the TGI (SF-268 CNS) was > 100 µM and the GI50 (OVCAR-8 ovarian) was > 100000 nM. For the same compound, the TGI (OVCAR-8 ovarian) was > 100 µM, the GI50 (COLO 205 colon) was > 100000 nM and the TGI (COLO 205 colon) was > 100 µM. The GI50 (IGROV1 ovarian) was > 100 µM and the TGI (IGROV1 ovarian) was > 100 µM.
With O=c1c2c(=NCCN3CCCC3)cc3c(=O)n(CCCN4CCOCC4)c(=O)c4ccc(c(O)n1CCCN1CCOCC1)c2c4-3 the GI50 (SNB-19 CNS) was 0.168 µM, the TGI (SNB-19 CNS) was 2.09 µM and the GI50 (HOP-92 NSCLC) was 0.129 µM. It also gave a TGI (HOP-92 NSCLC) of 0.607 µM, a GI50 (KM12 colon) of 0.131 µM and a TGI (KM12 colon) of 1.22 µM. It also gave a GI50 (CAKI-1 renal) of 0.218 µM, a TGI (CAKI-1 renal) of 1.41 µM and a GI50 (M14 melanoma) of 323 nM. The TGI (M14 melanoma) was 1.19 µM, the GI50 (A498 renal) was 0.173 µM and the TGI (A498 renal) was 0.981 µM. For the same compound, the GI50 (SF-268 CNS) was 0.165 µM, the TGI (SF-268 CNS) was 0.751 µM and the GI50 (OVCAR-8 ovarian) was 100 nM. The TGI (OVCAR-8 ovarian) was > 32.8 µM, the GI50 (COLO 205 colon) was 165 nM and the TGI (COLO 205 colon) was 0.423 µM. For the same compound, the GI50 (IGROV1 ovarian) was 0.0479 µM and the TGI (IGROV1 ovarian) was 1.5 µM.
With Cc1ccc(-c2cc(-c3ccc(C)cc3)nc(N3CCN(CCNc4ccnc5cc(Cl)ccc45)CC3)n2)cc1 the GI50 (SNB-19 CNS) was 6.51 µM, the TGI (SNB-19 CNS) was 15 µM and the GI50 (HOP-92 NSCLC) was 0.963 µM. The TGI (HOP-92 NSCLC) was 4.25 µM, the GI50 (KM12 colon) was 5.7 µM and the TGI (KM12 colon) was 39.2 µM. The GI50 (CAKI-1 renal) was 7.56 µM, the TGI (CAKI-1 renal) was 16.4 µM and the GI50 (M14 melanoma) was 1900 nM. The TGI (M14 melanoma) was 8.45 µM, the GI50 (A498 renal) was 9.69 µM and the TGI (A498 renal) was 30.4 µM. It also gave a GI50 (SF-268 CNS) of 4.88 µM, a TGI (SF-268 CNS) of 21.9 µM and a GI50 (OVCAR-8 ovarian) of 2170 nM. It also gave a TGI (OVCAR-8 ovarian) of 9.65 µM, a GI50 (COLO 205 colon) of 1710 nM and a TGI (COLO 205 colon) of 8.76 µM. It also gave a GI50 (IGROV1 ovarian) of 3.08 µM and a TGI (IGROV1 ovarian) of 12.3 µM.
